Test results reported in patent publication US11826351B2, “Compounds useful as kinase inhibitors” (Loxo Oncology, Inc., priority 2015, dated 2023).
Read-outs that look alike come from different tables or passages of the source.

Tests used:
[1] = biological target: T1, Recombinant EGFR (Homo sapiens, UniProt P00533); test: EGFR binding affinity (LanthaScreen TR-FRET); settings: Kinase Tracer 199, 5 h incubation
T1 construct: purchased Invitrogen
Summary of the method: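 Compounds were titrated against recombinant EGFR and binding was followed by LanthaScreen time-resolved FRET.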

[2] = biological target: T2, Recombinant BTK^WT kinase (Homo sapiens, UniProt Q06187); test: BTK WT binding affinity (LanthaScreen TR-FRET); settings: Kinase Tracer 236, 5 h incubation
T2 construct: purchased Invitrogen
Summary of the method: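 IC50 obtained by variable-slope fit of TR-FRET signal (ex 340 nm; em 615 and 665 nm) versus inhibitor concentration. Reaction held for 5 h in LanthaScreen Kinase Buffer A with 2.5 nM His-tagged BTK^WT, 15 nM Kinase Tracer 236 and 2 nM Eu anti-His antibody.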

[3] = biological target: T3, Recombinant BTK^C481S kinase (Homo sapiens, UniProt Q06187, C481S); test: BTK C481S binding affinity (LanthaScreen TR-FRET); settings: Kinase Tracer 236, 5 h incubation
T3 construct: purchased SignalChem
Summary of the method: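 BTK C481S tracer-displacement TR-FRET: 5 nM His-tagged kinase, 2 nM Eu anti-His antibody and 30 nM Kinase Tracer 236 incubated with titrated inhibitor for 5 h in Kinase Buffer A. Read at 340 nm excitation, 615/665 nm emission; IC50 from variable-slope log[inhibitor]–response fit.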

[4] = system: OCI-Ly10 human DLBCL cells; test: OCI-Ly10 anti-proliferative activity (Resazurin); type: cell-based; settings: OCI-Ly10 cells, 72 h compound treatment, Resazurin, read-out: Proliferation Assay OCI-Ly10-20% FBS
Summary of the method: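 A separate untreated plate gave the Day 0 reading, measured by Resazurin fluorescence at 590 nm after 5 h. The average Day 0 value was subtracted from each treated well, and results were expressed as percent of DMSO control. IC50 values came from a log[Inhibitor] vs response Variable Slope fit in Graphpad prism.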

T1 sequence (P00533 25-1210): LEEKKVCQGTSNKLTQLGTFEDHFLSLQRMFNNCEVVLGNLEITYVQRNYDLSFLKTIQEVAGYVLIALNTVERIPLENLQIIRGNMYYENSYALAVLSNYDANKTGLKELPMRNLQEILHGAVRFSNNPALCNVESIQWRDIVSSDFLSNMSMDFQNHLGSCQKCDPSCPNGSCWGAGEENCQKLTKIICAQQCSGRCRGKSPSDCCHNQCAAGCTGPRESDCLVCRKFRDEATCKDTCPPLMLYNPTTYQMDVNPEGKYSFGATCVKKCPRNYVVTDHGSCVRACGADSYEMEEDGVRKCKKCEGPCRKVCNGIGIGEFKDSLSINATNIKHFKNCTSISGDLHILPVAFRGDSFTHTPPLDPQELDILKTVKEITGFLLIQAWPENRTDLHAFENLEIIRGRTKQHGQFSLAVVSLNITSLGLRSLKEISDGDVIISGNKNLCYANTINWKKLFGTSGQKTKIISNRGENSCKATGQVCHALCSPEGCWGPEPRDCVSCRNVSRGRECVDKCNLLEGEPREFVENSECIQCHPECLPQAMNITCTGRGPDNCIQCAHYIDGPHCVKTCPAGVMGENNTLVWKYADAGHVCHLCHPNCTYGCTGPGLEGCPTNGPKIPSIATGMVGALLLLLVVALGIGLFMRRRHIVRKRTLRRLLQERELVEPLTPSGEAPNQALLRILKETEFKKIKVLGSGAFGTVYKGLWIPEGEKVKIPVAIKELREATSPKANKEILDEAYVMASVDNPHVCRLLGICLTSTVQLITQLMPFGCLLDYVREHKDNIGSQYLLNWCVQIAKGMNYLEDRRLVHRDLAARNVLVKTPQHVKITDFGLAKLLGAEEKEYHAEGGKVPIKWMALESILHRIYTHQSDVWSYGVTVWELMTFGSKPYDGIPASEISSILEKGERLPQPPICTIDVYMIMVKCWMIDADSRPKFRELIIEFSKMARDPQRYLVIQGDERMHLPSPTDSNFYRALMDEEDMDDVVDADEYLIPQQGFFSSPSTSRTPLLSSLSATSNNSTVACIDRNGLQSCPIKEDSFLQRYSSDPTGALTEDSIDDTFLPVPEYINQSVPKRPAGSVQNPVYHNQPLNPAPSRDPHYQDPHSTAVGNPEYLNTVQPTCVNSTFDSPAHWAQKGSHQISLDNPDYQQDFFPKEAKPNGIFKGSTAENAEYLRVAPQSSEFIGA
T3 sequence (Q06187 whole entry C481S): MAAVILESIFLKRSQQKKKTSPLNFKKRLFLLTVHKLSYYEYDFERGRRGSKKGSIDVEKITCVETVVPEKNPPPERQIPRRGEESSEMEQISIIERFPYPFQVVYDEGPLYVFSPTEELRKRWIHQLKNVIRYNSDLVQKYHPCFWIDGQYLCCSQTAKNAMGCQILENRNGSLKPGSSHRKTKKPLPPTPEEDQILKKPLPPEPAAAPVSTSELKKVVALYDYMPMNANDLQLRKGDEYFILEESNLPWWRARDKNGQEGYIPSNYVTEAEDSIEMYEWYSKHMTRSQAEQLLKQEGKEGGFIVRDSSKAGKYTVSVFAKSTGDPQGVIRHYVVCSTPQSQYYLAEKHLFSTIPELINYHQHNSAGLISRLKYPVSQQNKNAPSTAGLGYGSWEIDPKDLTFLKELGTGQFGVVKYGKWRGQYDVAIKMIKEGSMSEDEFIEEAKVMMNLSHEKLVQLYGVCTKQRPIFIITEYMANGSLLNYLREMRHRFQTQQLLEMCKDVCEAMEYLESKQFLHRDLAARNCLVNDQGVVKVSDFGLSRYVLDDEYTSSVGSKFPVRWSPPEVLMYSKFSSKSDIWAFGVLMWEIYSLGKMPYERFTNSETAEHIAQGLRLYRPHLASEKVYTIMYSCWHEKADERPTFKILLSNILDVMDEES
T2 sequence (Q06187 whole entry): as the sequence (Q06187 whole entry C481S) above, with S481C counted along it

SMILES | IC50 [1] | IC50 [2] | IC50 [3] | IC50 ([4]; Homo sapiens, OCI-Ly10, 72 h) | IC50 [4]
COc1ccccc1C(=O)NCc1ccc(-c2nn(C3CCOCC3C)c(N)c2C(N)=O)cc1 (mixture of isomers) [Example 86, 5-amino-3-[4-[[(2-methoxybenzoyl)amino]methyl]phenyl]-1-(3-methyltetrahydropyran-4-yl)pyrazole-4-carboxamide] | 100 to 1000 nM | < 10 nM | < 10 nM | 100 to 1000 nM | –
COc1ccc(F)cc1C(=O)NCc1ccc(-c2nn(CC(F)(F)F)c(N)c2C(N)=O)c(F)c1 [Example 125, 5-amino-3-[2-fluoro-4-[[(5-fluoro-2-methoxy-benzoyl)amino]methyl]phenyl]-1-(2,2,2-trifluoroethyl)pyrazole-4-carboxamide] | > 10000 nM | 10 to 100 nM | < 10 nM | 100 to 1000 nM | –
COc1ccc(F)cc1C(=O)NCc1ccc(-c2nn(C3CCOC3)c(N)c2C(N)=O)c(F)c1 (centres unmarked) [Example 105, 5-amino-3-[2-fluoro-4-[[(5-fluoro-2-methoxy-benzoyl)amino]methyl]phenyl]-1-tetrahydrofuran-3-yl-pyrazole-4-carboxamide] | 1000 to 10000 nM | 10 to 100 nM | < 10 nM | 100 to 1000 nM | –
CCC(n1nc(-c2ccc(CNC(=O)c3cc(F)ccc3OC)cc2)c(C(N)=O)c1N)C(F)(F)F (centres unmarked) [Example 181, 5-amino-3-[4-[[(5-fluoro-2-methoxy-benzoyl)amino]methyl]phenyl]-1-[1-(trifluoromethyl)propyl]pyrazole-4-carboxamide] | 1000 to 10000 nM | < 10 nM | < 10 nM | 10 to 100 nM | –
COc1ccccc1C(=O)NCc1ccc(-c2nn(C3CCCC3)c(Cl)c2C(N)=O)cc1 [Example 78, 5-chloro-1-cyclopentyl-3-[4-[[(2-methoxybenzoyl)amino]methyl]phenyl]pyrazole-4-carboxamide] | > 10000 nM | 10 to 100 nM | 10 to 100 nM | 1000 to 10000 nM | –
COc1ccccc1C(=O)NCc1ccc(-c2nn(C3CCC(C(=O)N(C)C)CC3)c(N)c2C(N)=O)cc1 (single isomer, unassigned) [Example 57b, 5-amino-1-[4-(dimethylcarbamoyl)cyclohexyl]-3-[4-[[(2-methoxybenzoyl)amino]methyl]phenyl]pyrazole-4-carboxamide] | 100 to 1000 nM | < 10 nM | < 10 nM | – | 100 to 1000 nM
COc1ccccc1C(=O)NCc1ccc(-c2nn(-c3cccc(F)c3)c(N)c2C(N)=O)cc1 [Example 32, 5-amino-1-(3-fluorophenyl)-3-[4-[[(2-methoxybenzoyl)amino]methyl]phenyl]pyrazole-4-carboxamide] | 100 to 1000 nM | < 10 nM | < 10 nM | 10 to 100 nM | –
COc1ccccc1C(=O)NCc1ccc(-c2nn(-c3ccc(C(F)(F)F)cn3)c(N)c2C(N)=O)cc1 [Example 6, 5-Amino-3-[4-[[(2-methoxybenzoyl)amino]methyl]phenyl]-1-[5-(trifluoromethyl)-2-pyridyl]pyrazole-4-carboxamide] | > 10000 nM | 10 to 100 nM | < 10 nM | 100 to 1000 nM | –
COc1ccccc1C(=O)NCc1ccc(-c2nn(C3CNCC3(F)F)c(N)c2C(N)=O)cc1 (centres unmarked) [Example 144, 5-amino-1-(4,4-difluoropyrrolidin-3-yl)-3-[4-[[(2-methoxybenzoyl)amino]methyl]phenyl]pyrazole-4-carboxamide] | 100 to 1000 nM | < 10 nM | < 10 nM | 100 to 1000 nM | –
COc1ccc(F)cc1C(=O)NCc1cc(F)c(-c2nn(C3CCOCC3)c(N)c2C(N)=O)cc1F [Example 146, 5-amino-3-[2,5-difluoro-4-[[(5-fluoro-2-methoxy-benzoyl)amino]methyl]phenyl]-1-tetrahydropyran-4-yl-pyrazole-4-carboxamide] | > 10000 nM | < 10 nM | < 10 nM | 100 to 1000 nM | –
COc1ccc(F)cc1C(=O)NCc1ccc(-c2nn([C@H]3CCOC3)c(N)c2C(N)=O)cc1 [Example 162, 5-amino-3-[4-[[(5-fluoro-2-methoxy-benzoyl)amino]methyl]phenyl]-1-[(3S)-tetrahydrofuran-3-yl]pyrazole-4-carboxamide] | 1000 to 10000 nM | < 10 nM | < 10 nM | 10 to 100 nM | –
COc1ccccc1C(=O)NCc1ccc(-c2nn(CC(F)(F)F)c(N)c2C(N)=O)cc1 [Example 21, 5-Amino-3-[4-[[(2-methoxybenzoyl)amino]methyl]phenyl]-1-(2,2,2-trifluoroethyl)pyrazole-4-carboxamide] | 100 to 1000 nM | < 10 nM | < 10 nM | 100 to 1000 nM | –
COc1ccccc1C(=O)NCc1ccc(-c2nn(-c3cc(F)ccc3F)c(N)c2C(N)=O)cc1 [Example 61, 5-amino-1-(2,5-difluorophenyl)-3-[4-[[(2-methoxybenzoyl)amino]methyl]phenyl]pyrazole-4-carboxamide] | 100 to 1000 nM | < 10 nM | < 10 nM | 10 to 100 nM | –

Other lines, results leading:

IC50 [1] | IC50 [2] | IC50 [3] | IC50 ([4]; Homo sapiens, OCI-Ly10, 72 h) | IC50 [4] | SMILES
> 10000 nM | 10 to 100 nM | 10 to 100 nM | 100 to 1000 nM | – | COc1ccccc1C(=O)NCc1c(F)cc(-c2nn(C3CCCC3)c(N)c2C(N)=O)cc1F [Example 138, 5-amino-1-cyclopentyl-3-[3,5-difluoro-4-[[(2-methoxybenzoyl)amino]methyl]phenyl]pyrazole-4-carboxamide]
1000 to 10000 nM | 10 to 100 nM | < 10 nM | – | 1000 to 10000 nM | COc1ccccc1C(=O)NCc1ccc(-c2nn(C3CCOC3C)c(N)c2C(N)=O)cc1 (single isomer, unassigned) [Example 84, 5-amino-3-[4-[[(2-methoxybenzoyl)amino]methyl]phenyl]-1-[2-methyltetrahydrofuran-3-yl]pyrazole-4-carboxamide]
100 to 1000 nM | < 10 nM | < 10 nM | 10 to 100 nM | – | COc1ccccc1C(=O)NCc1ccc(-c2nn(C3CC(O)c4ccccc43)c(N)c2C(N)=O)cc1 (centres unmarked) [Example 63, 5-amino-1-(3-hydroxyindan-1-yl)-3-[4-[[(2-methoxybenzoyl)amino]methyl]phenyl]pyrazole-4-carboxamide]
100 to 1000 nM | < 10 nM | < 10 nM | 10 to 100 nM | – | COc1ccccc1C(=O)NCc1ccc(-c2nn(C3CCCC3)c(N)c2C(N)=O)cc1F [Example 93, 5-amino-1-cyclopentyl-3-[3-fluoro-4-[[(2-methoxybenzoyl)amino]methyl]phenyl]pyrazole-4-carboxamide]
1000 to 10000 nM | < 10 nM | < 10 nM | – | < 10 nM | COc1ccc(F)cc1C(=O)NCc1ccc(-c2nn([C@H](C)C(F)(F)F)c(N)c2C(N)=O)cc1 (single isomer, unassigned) [Example 163a, 5-amino-3-[4-[[(5-fluoro-2-methoxy-benzoyl)amino]methyl]phenyl]-1-(2,2,2-trifluoro-1-methyl-ethyl)pyrazole-4-carboxamide]
1000 to 10000 nM | < 10 nM | < 10 nM | 100 to 1000 nM | – | COc1ccc(F)cc1C(=O)NCc1ccc(-c2nn(C3CCOCC3)c(N)c2C(N)=O)c(F)c1F [Example 142, 5-amino-3-[2,3-difluoro-4-[[(5-fluoro-2-methoxy-benzoyl)amino]methyl]phenyl]-1-tetrahydropyran-4-yl-pyrazole-4-carboxamide]
100 to 1000 nM | < 10 nM | < 10 nM | 10 to 100 nM | – | COc1ccccc1C(=O)NCc1ccc(-c2nn(-c3cccc(F)c3F)c(N)c2C(N)=O)cc1 [Example 81, 5-amino-1-(2,3-difluorophenyl)-3-[4-[[(2-methoxybenzoyl)amino]methyl]phenyl]pyrazole-4-carboxamide]
> 10000 nM | 10 to 100 nM | < 10 nM | 100 to 1000 nM | – | COc1ccccc1C(=O)NCc1ccc(-c2nn(C3CCOC3)c(N)c2C(N)=O)c(F)c1 (centres unmarked) [Example 100, 5-amino-3-[2-fluoro-4-[[(2-methoxybenzoyl)amino]methyl]phenyl]-1-tetrahydrofuran-3-yl-pyrazole-4-carboxamide]
1000 to 10000 nM | 10 to 100 nM | < 10 nM | > 10000 nM | – | COc1ccccc1C(=O)NCc1ccc(-c2nn(CCc3nnn[nH]3)c(N)c2C(N)=O)cc1 [Example 25, 5-Amino-3-[4-[[(2-methoxybenzoyl)amino]methyl]phenyl]-1-[2-(1H-tetrazol-5-yl)ethyl]pyrazole-4-carboxamide]
1000 to 10000 nM | < 10 nM | < 10 nM | 10 to 100 nM | – | COc1ccccc1C(=O)NCc1ccc(-c2nn(C3CCCOC3)c(N)c2C(N)=O)cc1F (centres unmarked) [Example 117, 5-amino-3-[3-fluoro-4-[[(2-methoxybenzoyl)amino]methyl]phenyl]-1-tetrahydropyran-3-yl-pyrazole-4-carboxamide]
